Earlier results, collected in patent US11278564B2, “Brain function-improving agent, food, and medicine using lipopolysaccharide” (Control of Innate Immunity Technology Research Association, priority 2017, dated 2022).

Conditions: intraperitoneal injection (NPL 5)

**Q.** Which Aβ intracerebral deposition does the source give for monophosphoryl lipid A [MPL] here?
**A.** Aβ intracerebral deposition suppressing action

**Q.** What about the learning function of the same substance?
**A.** learning function-improving action
